What all share (assay type): in vivo, Wistar male rats
The test system of experiment [1] is rats chronically administered 10% ethanol. The experiment is described as follows: alcohol withdrawal syndrome: tremors by the Hunt-Majchrowicz method. The conditions noted are these: 100 mg/kg intraperitoneal, eight hours after suspension of ethanol; for number of tremors, 30 min: saline group 6 ± 2.5; for number of tremors, 60 min: saline group 8 ± 1.5; for number of tremors, 90 min: saline group 7 ± 1.5; for number of tremors, 120 min: saline group 8 ± 2.5. As to the method: The experiment was performed in Wistar male rats housed in groups of 5 per cage under conditions of constant light-dark alternation at 21°C and fed with standard laboratory feed. The animals were chronically administered 10% ethanol ad lib. for 6 months.
Eight hours after suspension of ethanol administration, the animals were divided into 4 groups of 5 rats each.
The first group (A) was administered saline solution intraperitoneally (15 ml/kg), the second group (B) was given VCGB (100 mg/kg), again intraperitoneally, the third group (C) received GHB (100 mg/kg), while the fourth group (D) was given IVC (100 mg/kg). For the purposes of assessing the effects induced by the above-mentioned treatments on occurrence of alcohol withdrawal syndrome, tremors were measured in the rat, where, as in man, they are the most characteristic sign of withdrawal syndrome. Evaluation of the number of tremors was done using the method described by Hunt and Majchrowicz (see Hunt W.A. and Majchrovicz E., Journal of Pharmacology and Experimental Therapeutics, 213, 9-12 (1980). The results are given here below in Table 2. TABLE 2.

Experiment [2] concerns rats chronically treated with alcohol. The experiment can be described thus: alcohol withdrawal syndrome: convulsions on sound stimulation (electric bell, 100 dB, 1 min). The settings on record: 100 mg/kg intraperitoneal, eight hours after suspension of ethanol; test one hour after treatment; saline group 9/10. The protocol: The experiment was performed in Wistar male rats housed in groups of 5 per cage under constant light-dark alternation at 21°C and fed with standard laboratory feed. The animals were chronically administered 10% ethanol ad lib. for 6 months.
Eight hours after suspension of ethanol administration the animals were divided into 4 groups of 10 rats each. The first group (A) were administered saline solution (15 ml/kg) intraperitoneally, the second group (B) VCGB (100 mg/kg), again intraperitoneally, the third group (C) GHB (100 mg/kg) and the last group (D) IVC (100 mg/kg). For the purposes of evaluating the effects of the treatment on occurrence of alcohol withdrawal syndrome, the rats' susceptibility to onset of behavioral reactions (convulsions) due to emission of sound for 1 min by an electric bell (100 dB) was observed. The experiment was performed in all groups of rats one hour after treatment, and the results are given here below in Table 3.

A further experiment relates to alcohol-dependent rats. The experiment can be described thus: modified Vogel test (licks at shock-linked drinking vessel) in alcohol-dependent rats. The settings on record: 100 mg/kg intraperitoneal at ethanol suspension; rats given 10% ethanol for 6 months; 10 min. exposure period; saline group 38.5 ± 8.5. The protocol: Wistar male rats (housed in groups of 5 per cage) were used, kept in conditions of constant light-dark alternation at 21°C and fed with standard laboratory feed. The animals were chronically administered 10% ethanol ad lib. for 6 months.
To assess the activity, if any, of VCGB on the anxiety component involved in the compulsive act of searching for alcohol, a modified version of the Vogel test was used as described by Keppler D. et al. in Exp. Mol. Path. 9, 279 (1968).
Prior to the start of the experiment the animals were deprived of water for 48 h. At the time of ethanol treatment suspension, the animals were divided into 4 groups who were given the following intraperitoneal administrations: the first group (A) received saline solution (15 ml/kg), the second group (B) VCGB (100 mg/kg), the third group (C) GHB (100 mg/kg) and the fourth group (D) IVC ([…]).
On the day of the test, the animals were provided with two drinking vessels, one containing water and the other a mixture of water and ethanol (90:10 v/v) in bottles, the metal spouts of which were connected up to a source of electricity: after every 5 licks at the drinking vessel an electric shock (1 mA) was delivered for 10 min. which obliged the animal to withdraw, overcoming its desire to drink the water-alcohol solution. Refusal of the animals to drink the water-alcohol solution, confining their attention only to the vessel containing water alone, was taken as an indication of efficacy. In evaluating the results, the numbers of licks were compared for treated animals versus controls over the 10 min. exposure period.

The test system of experiment [3] is lipoperoxidation in the CNS of rats. The experiment can be described thus: lipoperoxidation in the CNS: cerebral malonaldehyde (MDA) after chronic ethanol treatment. The conditions noted are these: brain homogenate; 10% ethanol for two months, then 100 mg/kg single intraperitoneal dose; Control 0.543 ± 0.19, Ethanol 1.12 ± 0.13. As to the method:
This study was conducted in order to assess what variations in malonaldehyde (MDA) occur following VCGB administration, MDA being a reliable and quantifiable index of the vulnerability of the central nervous system to damage due to free radicals as a result of the detrimental effects of ethanol.
The experiment was conducted in Wistar male rats housed in groups of 5 per cage under constant light-dark alternation at 21°C and fed with standard laboratory feed. Two groups of rats, each comprising 5 animals, were administered 10% ethanol in water throughout the treatment period. A third group of animals was kept on a standard laboratory diet without receiving any treatment. After two months of ethanol treatment the animals in the first group were administered VCGB in aqueous solution (100 mg/kg) in a single intraperitoneal dose. A few days after treatment, the animals were sacrificed and the brains promptly removed. MDA was measured using a modified micromethod described by Slater and Sawyer (Slater T. F. and Sawyer B. C., 1971, J. Biochem. Tokyo 8: 2180). […] The samples were placed in boiling water for 10 min, and after cooling absorbance was determined at 532 nm using a spectrophotometer. […] Proteins were measured by the Smith method (Smith et al., 1985, Analyt. Biochem. 27: 502), using bicinchoninic acid as reagent. […]

Consider `CC(C)CC(=O)O[C@H](CC(=O)[O-])C[N+](C)(C)C` [IVC, isovaleryl L-carnitine], for which, in experiment [1], the “number of tremors, 30 min” value is on record as 4 ± 2; the “number of tremors, 60 min” value was determined as 5 ± 2; the “number of tremors, 90 min” value was 5 ± 1.5; the “number of tremors, 120 min” value is recorded as 6 ±2. Further, in experiment [2], the “Animals with convulsions/animals treated” value is on record as 6/10. The molecule further came in with a Number of licks in the experiment on alcohol-dependent rats of 35.2 ± 7.4.

For `O=C(O)CCCO` [GHB, gamma-hydroxybutyric acid], in experiment [1], the “number of tremors, 30 min” value amounted to 2 ± 0.5; the “number of tremors, 60 min” value is reported as 1 ± 0.5; the “number of tremors, 90 min” value is 2 ± 1; the “number of tremors, 120 min” value amounted to 3 ± 1. For the same molecule, in experiment [2], the “Animals with convulsions/animals treated” value is listed as 4/10. In the experiment with alcohol-dependent rats, the Number of licks was 11 ± 2.4 ▲.

With `CC(C)CC(=O)O[C@H](CC(=O)OCCCC(=O)[O-])C[N+](C)(C)C` [VCGB, isovaleryl L-carnitine gamma-hydroxybutyrate], the MDA in experiment [3] amounted to 0.497 ± 0.15 nmol/mg protein. Besides, in experiment [1], the “number of tremors, 30 min” value worked out at 0 ± 0.25; the “number of tremors, 60 min” value was 0 ± 0; the “number of tremors, 90 min” value was 0 ± 0.75; the “number of tremors, 120 min” value is 0 ± 0.25. In addition, the “Animals with convulsions/animals treated” value in experiment [2] is given as 1/10. For the same molecule, the Number of licks in the experiment with alcohol-dependent rats was 5.6 ± 1.14.

For the origin of these results see EP0616805A1, “Use of acyl L-carnitine gamma-hydroxybutyrate for the treatment of alcoholism” (Sigma-Tau Industrie Farmaceutiche Riunite S.p.A., priority 1993, dated 1994).
